Assays:
[1] = Example 4: 8 week weight loss experiment in obese mice, compounds via drinking water; type: in vivo, Male C57BL6/J mice; details: obese mice on high-fat diet, 8 weeks, most compounds 0.5 and 2.5 mg/kg/day, hexestrol 0.125 to 2 mg/kg/day
Description: An 8 week experiment was performed to investigate the ability of various estrogen modulating compounds to induce weight loss in obese mice. Male C57BL6/J mice were placed on a high fat diet for approximately 12 weeks prior to the study and initiated in the experiment at 18 weeks of age. Obese mice were allocated into cohorts of 6 mice per compound and housed at a density of 3 per cage. Over 8 weeks, mice were placed on a high-fat diet ad libitum and compounds were provided via drinking water. Most compounds were assigned to two treatment groups with doses of 0.5 mg/kg/day and 2.5 mg/kg/day. Hexestrol was assigned to 5 treatment groups ranging between 0.125 mg/kg/day and 2 mg/kg/day. Weight measurements of each mouse were taken once per week over 8 weeks.

[2] = Example 3: 8 week weight loss experiment in obese mice, compound in drinking water or feed; type: in vivo, male C57BL6/J mice; details: for body weight in comparison to controls / body weight reduction from controls: 8 weeks; for fat tissue mass (NMR body composition analysis): after 8 weeks
Description: (§1) An 8 week long weight loss experiment was performed on obese 18 week old male C57BL6/J mice having been on a high fat diet for approximately 12 weeks. The estrogen modulating compound treatment groups (hexestrol, clomiphene, raloxifene, and tamoxifen) were either provided in drinking water or feed. Obese mice were allocated into cohorts of 6 mice per compound per treatment type and housed at a density of 1 mouse per cage. Water treatment group mice were placed on a high fat diet ad libitum with compound provided via drinking water. Each feed treatment group received a specially formulated high fat diet containing their corresponding compound ad libitum and normal drinking water. Weight measurements of each mouse were taken twice per week over 8 weeks. Food intake per mouse per day was also recorded.
(§2) At the end of 8 weeks mice underwent a body tissue composition analysis by Echo MRI (NMR), an intraperitoneal glucose tolerance test (IPGTT), and an oral glucose tolerance test (OGTT). For IPGTT, each mouse received an intraperitoneal glucose solution injection of 1 g glucose/kg body weight. Serum glucose concentration was measured pre-injection, and 30, 60, and 90 minutes post-injection. For OGTT, each mouse received an oral glucose solution dose of 1 g glucose/kg body weight. Serum glucose was measured before the oral dose, and 15, 30, 90, and 120 minutes after oral dose.

[3] = Example 1 Phase 1: prevention of weight gain in lean mice placed on high fat diet, drug via drinking water for 8 weeks; type: in vivo, Male C57BL6/J mice; details: for lean mouse body weight accumulation over the 8 week period: drug in drinking water, vs control mice
Description: (§3) Male C57BL6/J mice were tested as follows. The animal room was lighted entirely with artificial fluorescent lighting on controlled 12 hr light/dark cycle (6 a.m. to 6 p.m. light). The normal temperature and relative humidity ranges in the animal rooms were maintained at 22±4° C. and 50±15%, respectively. The animal room was set for 15 air exchanges per hour. Filtered tap water acidified to a pH of 2.5 to 3.0 was provided ad libitum. High fat diet was provided ad libitum.
After a 1 week acclimation, the mice were grouped into cohorts of 6 mice each. 6 DIO (diet induced obesity) and 6 lean C57BL6/J mice were used as naïve controls. Each drug was administered via drinking water for 8 weeks. The drug containing drinking water solutions were made fresh weekly. Water intake, food intake, and body weights were recorded weekly.
This experiment was run in two phases, Phase 1 (prevention of weight gain in lean mice) and Phase 2 (weight loss in obese mice). In the phase 1 experiment, the mice were placed on high fat diet at the same time administration of the drug was initiated. In the phase 2 experiment, drug treatment was initiated on 18 week old mice, which were previously on a high fat diet for approximately 12 weeks. In addition to the measurements noted above, a single DEXA Scan analysis was ran on the mice in Phase 2. After treatment, mice underwent body tissue composition analysis by Echo MRI (NMR) to measure their fat and lean mass content.
(§4) Body weight change was calculated for each mouse by subtracting the body weight on the first day of dosing (baseline) from the body weight on the last day of dosing (final) and calculating the percent change from baseline body weight: [=100*(Final Weight−BaselineWeight)/BaselineWeight]. Average percent body weight change was then calculated for each treatment group. Error bars represent standard error of the mean (SEM).
Food intake per mouse per day was calculated based on food intake per cage. Mean food intake for each treatment group was then calculated weighted by the number of mice per cage. Similarly, water intake per mouse per day was calculated based on water intake per cage. Mean water intake for each treatment group was then calculated weighted by the number of mice per cage.
In both phase 1 and 2 studies, the drugs were administered through the water given to the mice. The concentration of each drug in the water is provided below:
Diethylstilbestrol: 2 mg/500 mL (1 mg/kg/day)
Raloxifene: 20 mg/500 mL (10 mg/kg/day)
Tamoxifen: 4 mg/500 mL (2 mg/kg/day)
Clomiphene: 10 mg/500 mL (5 mg/kg/day)
Hexestrol: 4 mg/500 mL (2 mg/kg/day)
A mouse typically drinks about 5 mL of water a day.
Phase 1 (Prevention of Weight Gain in Lean Mice)

[4] = Example 1 Phase 2: weight loss in obese mice, drug via drinking water for 8 weeks; type: in vivo, Male C57BL6/J mice
Description: as §3
After a 1 week acclimation, the mice were grouped into cohorts of 6 mice each. 6 DIO (diet induced obesity) and 6 lean C57BL6/J mice were used as naïve controls. Each drug was administered via drinking water for 8 weeks. […] Water intake, food intake, and body weights were recorded weekly. […]
as §4, with “Error bars represent standard error of the mean (SEM).” left out
Food intake per mouse per day was calculated based on food intake per cage. Mean food intake for each treatment group was then calculated weighted by the number of mice per cage. Similarly, water intake per mouse per day was calculated based on water intake per cage. […]

[5] = Example 3: intraperitoneal glucose tolerance test (IPGTT) in obese mice after 8 weeks of treatment; type: in vivo, male C57BL6/J mice; details: hexestrol water treated mice, 1 mg/kg/day
Description: as §1, §2

[6] = Example 3: oral glucose tolerance test (OGTT) in obese mice after 8 weeks of treatment; type: in vivo, male C57BL6/J mice; details: hexestrol water treated mice, 1 mg/kg/day, 1 g glucose/kg oral
Description: as §1, §2

C[C@]12CC[C@@H]3c4ccc(O)cc4CC[C@H]3[C@@H]1CC[C@@H]2O [17β-estradiol]
body weight in comparison to the control group [1]: significant reduction

C/C=C(/C(=C/C)c1ccc(O)cc1)c1ccc(O)cc1 [Dienestrol, dienestrol]
body weight in comparison to the control group [1]: significant reduction

CCN(CC)CCOc1ccc(C(=C(Cl)c2ccccc2)c2ccccc2)cc1 [clomiphene]
body weight in comparison to controls ([2]; feed treatment group): significant reduction
body weight in comparison to controls ([2]; water treatment group): significant reduction
fat tissue mass (NMR body composition analysis) ([2]; feed treated mice): significant decrease
lean mouse body weight accumulation over the 8 week period [3]: significant decrease
change in body weight ([4]; 8 weeks, clomiphene 5 mg/kg/day in drinking water): significant
fat tissue mass (NMR body composition analysis) ([4]; after 8 weeks, in comparison to control mice): reduction in fat tissue mass

CC/C(=C(/CC)c1ccc(O)cc1)c1ccc(O)cc1 [diethylstilbestrol]
lean mouse body weight accumulation over the 8 week period [3]: significant decrease

CC[C@H](c1ccc(O)cc1)[C@@H](CC)c1ccc(O)cc1 [hexestrol]
serum glucose concentration upon injection of the glucose solution (IPGTT) ([5]; 1 g glucose/kg intraperitoneal, up to 90 minutes post-injection): remains static
starting serum glucose concentration (IPGTT) ([5]; pre-injection, in comparison to controls): significantly lower
body weight in comparison to controls ([2]; feed treatment group): significant reduction
body weight reduction from controls ([2]; feed treatment group): 31.7±4.5%
body weight in comparison to controls ([2]; water treatment group): significant reduction
body weight reduction from controls ([2]; water treatment group): 30.8±9.7%
fat tissue mass (NMR body composition analysis) ([2]; feed treated mice): significant decrease
fat tissue mass (NMR body composition analysis) ([2]; water treated mice): significant decrease
reduction of body weight accumulation from control mice ([3]; 8 weeks, hexestrol 2 mg/kg/day in drinking water): 35.0±11.3%
lean mouse body weight accumulation over the 8 week period [3]: significant decrease
increase of serum glucose concentration upon an oral dose of glucose (OGTT) ([6]; in comparison to controls): increases to a lesser amount
time at which serum glucose returns back to baseline (OGTT) ([6]; post-dose): ≤ 90 min
body weight in comparison to the control group [1]: significant reduction

O=C(c1ccc(OCCN2CCCCC2)cc1)c1c(-c2ccc(O)cc2)sc2cc(O)ccc12 [raloxifene]
body weight in comparison to controls ([2]; feed treatment group): significant reduction
body weight in comparison to controls ([2]; water treatment group): significant reduction
lean mouse body weight accumulation over the 8 week period [3]: significant decrease

CC/C(=C(\c1ccccc1)c1ccc(OCCN(C)C)cc1)c1ccccc1 [tamoxifen]
body weight in comparison to controls ([2]; feed treatment group): significant reduction
body weight in comparison to controls ([2]; water treatment group): significant reduction
fat tissue mass (NMR body composition analysis) ([2]; feed treated mice): significant decrease
fat tissue mass (NMR body composition analysis) ([2]; water treated mice): significant decrease
lean mouse body weight accumulation over the 8 week period [3]: significant decrease

CN(C)CCOc1ccc(/C(=C(/CCCl)c2ccccc2)c2ccccc2)cc1 [toremifene]
body weight in comparison to the control group [1]: significant reduction

— patent publication US20140378424A1, “ESTROGEN RECEPTOR MODULATORS FOR REDUCING BODY WEIGHT” (RosScreening, Inc., priority 2011, published 2014)
